From patent publication US8658604B2, “Template-fixed beta-hairpin peptidomimetics with protease inhibitory activity” (Polyphor Ltd, priority 2005, dated 2014)
Where a SMILES comes first, the peptide text is derived from it.

How the values were obtained:
[1] = biological target: T1, CathepsinG, from human neutrophils (Homo sapiens, UniProt P08311); experiment: Enzymatic assay, cathepsin G
T1 sequence (P08311 21-244): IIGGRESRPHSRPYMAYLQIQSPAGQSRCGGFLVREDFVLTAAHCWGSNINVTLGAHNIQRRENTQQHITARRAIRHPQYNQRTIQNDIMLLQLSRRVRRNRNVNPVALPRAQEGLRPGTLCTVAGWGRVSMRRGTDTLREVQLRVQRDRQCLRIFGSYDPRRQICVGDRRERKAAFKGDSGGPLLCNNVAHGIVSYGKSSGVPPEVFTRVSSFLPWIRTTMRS

[2] = biological target: Urokinase from human urine (Homo sapiens, UniProt P00749); experiment: Enzymatic assay, urokinase
Chymase, from human skin = biological target: T2, Chymase, from human skin (Homo sapiens, UniProt P23946); experiment: Enzymatic assay, chymase
T2 sequence (P23946 22-247): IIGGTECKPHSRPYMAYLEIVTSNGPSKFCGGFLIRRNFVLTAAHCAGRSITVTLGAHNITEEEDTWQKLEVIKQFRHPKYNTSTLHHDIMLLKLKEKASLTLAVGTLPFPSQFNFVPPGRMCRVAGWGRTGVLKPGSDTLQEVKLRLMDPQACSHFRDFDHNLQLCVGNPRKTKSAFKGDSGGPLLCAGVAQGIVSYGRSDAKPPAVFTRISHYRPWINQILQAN

[3] = biological target: Thrombin, from Human Plasma (Homo sapiens, UniProt P00734); experiment: Enzymatic assay, thrombin
[4] = biological target: Coagulation Factor Xa, from uman plasma (Homo sapiens, UniProt P00742); experiment: Enzymatic assay, coagulation factor Xa
Sequence of Coagulation Factor Xa, from uman plasma (P00742 235-488 limits assumed): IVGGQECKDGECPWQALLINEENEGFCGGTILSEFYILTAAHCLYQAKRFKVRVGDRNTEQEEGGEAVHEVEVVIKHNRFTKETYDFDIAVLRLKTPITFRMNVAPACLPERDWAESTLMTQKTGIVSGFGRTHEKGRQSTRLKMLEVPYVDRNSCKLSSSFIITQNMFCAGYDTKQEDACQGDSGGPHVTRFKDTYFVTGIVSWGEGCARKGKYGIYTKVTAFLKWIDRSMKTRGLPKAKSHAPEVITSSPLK
Sequence of Coagulation Factor Xa, from uman plasma (P00742 41-179 limits assumed): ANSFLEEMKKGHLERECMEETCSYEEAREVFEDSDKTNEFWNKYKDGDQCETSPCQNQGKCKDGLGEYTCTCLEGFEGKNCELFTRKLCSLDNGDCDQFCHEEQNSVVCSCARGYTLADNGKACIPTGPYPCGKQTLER

[5] = biological target: Trypsin, from human pancreas (Homo sapiens, UniProt P07477); experiment: Enzymatic assay, trypsin; details: at 100 μM
[6] = system: Tryptase, from human lung; experiment: Enzymatic assay, tryptase; details: at 100 μM
[7] = biological target: Chymotrypsin, from human pancreas (Homo sapiens, UniProt P17538); experiment: Enzymatic assay, chymotrypsin; details: at 100 μM
Sequence of Chymotrypsin, from human pancreas (P17538 19-263): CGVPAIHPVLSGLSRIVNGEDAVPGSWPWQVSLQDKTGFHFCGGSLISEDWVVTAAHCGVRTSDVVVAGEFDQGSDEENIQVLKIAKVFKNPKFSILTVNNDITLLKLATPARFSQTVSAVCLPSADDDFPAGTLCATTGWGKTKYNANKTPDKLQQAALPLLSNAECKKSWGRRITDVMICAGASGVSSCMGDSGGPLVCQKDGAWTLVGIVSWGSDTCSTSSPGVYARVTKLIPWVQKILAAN

[8] = biological target: T3, Elastase from human neutrophils (Homo sapiens, UniProt P08246); experiment: Enzymatic assay, elastase; details: Elastase IC50
T3 sequence (P08246 30-267): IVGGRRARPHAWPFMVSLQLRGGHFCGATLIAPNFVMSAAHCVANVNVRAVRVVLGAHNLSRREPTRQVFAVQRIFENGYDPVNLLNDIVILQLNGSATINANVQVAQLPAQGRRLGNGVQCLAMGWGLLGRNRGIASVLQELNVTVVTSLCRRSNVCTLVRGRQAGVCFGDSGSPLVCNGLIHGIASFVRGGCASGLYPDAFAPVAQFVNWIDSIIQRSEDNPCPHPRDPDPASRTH

Structure (SMILES)	IC50 ([1]; Cathepsin G IC50) [nM]	Urokinase at 100 μM % [2] [%]	Chymase at 100 μM % (Chymase, from human skin) [%]	Thrombin at 100 μM % [3] [%]	FXa at 100 μM % [4] [%]	Trypsin at 100 μM % [5] [%]	Tryptase At 100 μM % [6] [%]	Chymotrypsin at 100 μM % [7] [%]	IC50 [8] [nM]	Cathepsin G at 100 μM % [1] [at 100%]
CCCCCCCC[C@@H]1NC(=O)[C@H](CO)NC(=O)[C@H](C)NC(=O)[C@H]([C@@H](C)O)NC(=O)[C@@H]2CSSC[C@H](NC(=O)[C@H](CCC(N)=O)NC(=O)[C@@H]3CCCN3C(=O)[C@@H]3CCCN3C1=O)C(=O)N[C@@H](Cc1ccc(O)cc1)C(=O)N1CCC[C@@H]1C(=O)N[C@@H](CCC(N)=O)C(=O)N[C@@H](CCCC)C(=O)N2 [compound 169] (HELM PEPTIDE1{[Nle].C.T.A.S.[CCCCCCCC[C@H](N[*:1])C(=O)[*:2]].P.P.Q.C.Y.[dP].Q}$PEPTIDE1,PEPTIDE1,2:R3-10:R3|PEPTIDE1,PEPTIDE1,1:R1-13:R2$$$V2.0)	20300	10.4	0	20.6	13.3	10.8	4.2	79.6	18	–
CC[C@H](C)[C@@H]1NC(=O)[C@H](CO)NC(=O)[C@H](C)NC(=O)[C@H]([C@@H](C)O)NC(=O)[C@@H]2CSSC[C@H](NC(=O)[C@H](CCC(N)=O)NC(=O)[C@@H]3CCCN3C(=O)[C@@H]3CCCN3C1=O)C(=O)N[C@@H](Cc1ccc(O)cc1)C(=O)N[C@H](CCCCN)C(=O)N[C@@H](CCC(=O)O)C(=O)N[C@@H](CCc1ccccc1)C(=O)N2 [compound 174] (HELM PEPTIDE1{[O=C([C@H](CCc1ccccc1)N[*:1])[*:2]].C.T.A.S.I.P.P.Q.C.Y.[dK].E}$PEPTIDE1,PEPTIDE1,2:R3-10:R3|PEPTIDE1,PEPTIDE1,1:R1-13:R2$$$V2.0)	–	1	0	11	3	7	10	85	12	56
CCCCCCCC[C@@H]1NC(=O)[C@H](CCC(N)=O)NC(=O)[C@H]2CCCN2C(=O)[C@H](Cc2ccc(O)cc2)NC(=O)[C@@H]2CSSC[C@H](NC1=O)C(=O)N[C@@H]([C@@H](C)O)C(=O)N[C@@H](C)C(=O)N[C@@H](CO)C(=O)N[C@@H]([C@@H](C)CC)C(=O)N1CCC[C@H]1C(=O)N1CCC[C@H]1C(=O)N[C@@H](CCC(N)=O)C(=O)N2 [compound 177] (HELM PEPTIDE1{[CCCCCCCC[C@H](N[*:1])C(=O)[*:2]].C.T.A.S.I.P.P.Q.C.Y.[dP].Q}$PEPTIDE1,PEPTIDE1,2:R3-10:R3|PEPTIDE1,PEPTIDE1,1:R1-13:R2$$$V2.0)	–	12	3	17	7	5	15	86	7	54
